From ChEMBL document CHEMBL3638719, “Carbazole and carboline kinase inhibitors” (2014)

Target: Tyrosine-protein kinase JAK2 (Homo sapiens, UniProt O60674)
Assay: Tyrosine Kinase Assay: The assays were performed in V-bottom 384-well plates. […] The reaction was initiated by the combination of JAK2 with substrates and test compounds. The reaction was incubated at room temperature for 60 min. and terminated by adding 45 ul of 35 mM EDTA to each sample. The reaction mixture was analyzed on the Caliper LABCHIP 3000 by electrophoretic separation of the fluorescent substrate and phosphorylated product.

Chain of Tyrosine-protein kinase JAK2 (O60674 whole entry): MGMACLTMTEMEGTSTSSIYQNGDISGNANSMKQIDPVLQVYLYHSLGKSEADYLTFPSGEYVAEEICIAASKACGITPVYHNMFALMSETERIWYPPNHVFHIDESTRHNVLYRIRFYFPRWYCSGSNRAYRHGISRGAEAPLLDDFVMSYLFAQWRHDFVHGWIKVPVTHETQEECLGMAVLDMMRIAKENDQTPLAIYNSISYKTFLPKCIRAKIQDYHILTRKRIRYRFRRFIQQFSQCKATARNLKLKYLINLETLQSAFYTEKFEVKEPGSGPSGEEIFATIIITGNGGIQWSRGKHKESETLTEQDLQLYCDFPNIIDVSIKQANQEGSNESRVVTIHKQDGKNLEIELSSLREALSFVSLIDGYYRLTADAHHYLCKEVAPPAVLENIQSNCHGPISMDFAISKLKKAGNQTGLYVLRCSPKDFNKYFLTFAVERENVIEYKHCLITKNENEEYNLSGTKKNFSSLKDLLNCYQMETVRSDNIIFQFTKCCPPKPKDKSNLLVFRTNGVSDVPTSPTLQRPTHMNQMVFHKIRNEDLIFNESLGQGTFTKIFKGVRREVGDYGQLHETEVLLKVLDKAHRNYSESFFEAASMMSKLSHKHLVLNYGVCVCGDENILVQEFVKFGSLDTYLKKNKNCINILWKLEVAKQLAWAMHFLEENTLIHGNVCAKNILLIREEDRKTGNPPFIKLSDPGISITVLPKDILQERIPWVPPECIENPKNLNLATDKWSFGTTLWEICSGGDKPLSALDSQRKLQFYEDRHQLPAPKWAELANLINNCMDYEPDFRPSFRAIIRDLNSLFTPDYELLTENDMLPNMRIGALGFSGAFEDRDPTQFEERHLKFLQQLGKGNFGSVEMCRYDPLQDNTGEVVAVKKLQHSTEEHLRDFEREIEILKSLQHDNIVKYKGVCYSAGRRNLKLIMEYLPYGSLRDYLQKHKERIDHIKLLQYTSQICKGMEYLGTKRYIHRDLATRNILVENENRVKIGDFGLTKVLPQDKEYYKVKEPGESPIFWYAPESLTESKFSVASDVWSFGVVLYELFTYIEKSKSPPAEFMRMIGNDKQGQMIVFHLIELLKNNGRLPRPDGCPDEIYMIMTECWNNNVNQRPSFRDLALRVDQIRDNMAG

| IC50 [nM] | SMILES |
| --- | --- |
| 1 | COc1ccc(-c2cc(C(N)=O)c3[nH]c4cc(C(=O)N5CCCC(C)(O)C5)ccc4c3c2)cc1F (configuration not stated) |
| 160 | COc1cccc(-c2cc(C(N)=O)c3[nH]c4cc(NC(=O)OC(C)(C)C)ccc4c3c2)c1 |
